These results are taken from patent US8927538B2, “Carbazole linked pyrrolo[2,1-c][1,4]benzodiazefine hybrids as potential anticancer agents and process for the preparation thereof” (Council of Scientific & Industrial Research, priority 2010, dated 2015).

The structures appear in SMILES notation.

The subject of one test is Colo-205. As to the kind of experiment: ACTREC in vitro cytotoxicity, Colo-205. The format is cell-based. The protocol: (§1) In vitro biological activity studies were carried out at the Advance Center for Treatment Research & Education in Cancer.
Another test concerns A-2780. As to the kind of experiment: ACTREC in vitro cytotoxicity, A-2780. The format is cell-based. The settings on record: Ovary A-2780 (Table 4). How it is done: as §1
The test system of the next test is MCF7. As to the kind of experiment: ACTREC in vitro cytotoxicity, MCF7. The format is cell-based. The protocol: as §1
For test [1], the system named is duplex-form calf thymus DNA (CT-DNA). Nature of the test: Thermal denaturation studies (DNA binding). The settings on record: [PBD]:[DNA] molar ratio 1:5, CT-DNA 100 μM, ligand 20 μM; for ΔTm after incubation at 37 °C for 0 h: pH 7.00, 0 h; for ΔTm after incubation at 37 °C for 18 h: pH 7.00, 18 h. How it is done:
Compounds have been subjected to thermal denaturation studies with duplex-form calf thymus DNA (CT-DNA) using a modification of a reported procedure. Working solutions in aqueous buffer ([…] NaH2PO4/Na2HPO4, 1 mM Na2EDTA, pH 7.00±0.01) containing CT-DNA (100 μM in phosphate) and the PBD (20 μM) have been prepared by addition of concentrated PBD solutions in DMSO to obtain a fixed [PBD]/[DNA] molar ratio of 1:5. The DNA-PBD solutions have been incubated at 37° C. for 0 and 18 hrs prior to analysis. Samples have been monitored at 260 nm using a Beckman DU-800 spectrophotometer fitted with high performance temperature controller, and heated at 1° C. min^−1 in the 40-110° C. range. DNA helix→coil transition temperatures (Tm) have been obtained from the maxima in the d(A260)/dT derivative plots. Drug-induced alterations in DNA melting behavior are given by: […]Tm=Tm(DNA+PBD)-Tm(DNA alone), where the Tm value for the PBD-free CT-DNA is 68.5 […]0.01.
The DNA-binding for these C8-linked carbazole-PBD hybrids has been examined by thermal denaturation studies using calf thymus (CT) DNA. […] Data for 6a, 6b, 6c, 14a, 14b, and 14d and DC-81 are included in Table 5 for comparison.

The subject of the next test is Zr-75-1. As to the kind of experiment: ACTREC in vitro cytotoxicity, Zr-75-1. The format is cell-based. The protocol:
as §1

The test system of the next test is KB. Nature of the test: ACTREC in vitro cytotoxicity, KB. The class given is cell-based. The protocol: as §1
The next test concerns Si-Ha. As to the kind of experiment: ACTREC in vitro cytotoxicity, Si-Ha. The class given is cell-based. The protocol:
as §1

The subject of the next test is HOP-62. Nature of the test: ACTREC in vitro cytotoxicity, HOP-62. The class given is cell-based. How it is done: as §1
For the next test, the system named is GURAV. As to the kind of experiment: ACTREC in vitro cytotoxicity, GURAV. The class given is cell-based. How it is done: as §1
Another test relates to A-549. As to the kind of experiment: ACTREC in vitro cytotoxicity, A-549. The format is cell-based. The settings on record: Lung A-549 (Table 4). The protocol: as §1
In a further test the test system is PC-3. As to the kind of experiment: ACTREC in vitro cytotoxicity, PC-3. The class given is cell-based. The protocol:
as §1

On to `COc1cc2c(cc1OCCCn1c3ccccc3c3ccccc31)N=C[C@@H]1CCCN1C2=O` [Compound 6a, 7-Methoxy-8-[3-(9H-9-carbazoly)propoxy]-(11aS)-1,2,3,11a-tetrahydro-5H-pyrrolo[2,1-c][1,4]-benzodiazepin-5-one], for which the GI50 – broadly, the concentration that inhibits growth by half – with Colo-205 (Colon Colo-205 (Table 4)) came to 1.68 µM; with Colo-205 (colon (Colo205)), 1.68 µM; with A-2780, 1.51 µM; in the test on MCF7 (Breast MCF7 (Table 4)) it was 1.85 µM; in the test with MCF7 (breast (MCF-7)), 1.85 µM; in the test on Zr-75-1 (Breast Zr-75-1 (Table 4)), 1.89 µM. Further, the 50% growth inhibitory concentration (GI50) was determined as 1.87 µM in the test on KB (Oral KB (Table 4)); 1.7 µM in the test on Si-Ha (Cervix Si-Ha (Table 4)); 1.93 µM with HOP-62 (Lung HOP-62 (Table 4)); 1.93 µM with HOP-62 (non small cell lung (HOPO62)); 1.6 µM in the test with GURAV (Oral GURAV (Table 4)). In test [1], the “ΔTm after incubation at 37 °C for 0 h” value came to 4.2 °C. Besides, the “ΔTm after incubation at 37 °C for 18 h” value in test [1] is 5.1 °C.

`COc1cc2c(cc1OCCCCn1c3ccccc3c3ccccc31)N=C[C@@H]1CCCN1C2=O` [Compound 6b, 7-Methoxy-8-[4-(9H-9-carbazoly)butoxy]-(11aS)-1,2,3,11a-tetrahydro-5H-pyrrolo[2,1-c][1,4]benzodiazepin-5-one]: the GI50 is 1.7 µM with Colo-205 (Colon Colo-205 (Table 4)); 1.7 µM in the test on Colo-205 (colon (Colo205)); 1.57 µM in the test on A-2780; 2.21 µM in the test with MCF7 (Breast MCF7 (Table 4)); 1.81 µM with Zr-75-1 (Breast Zr-75-1 (Table 4)); 1.81 µM in the test with Zr-75-1 (breast (Zr-75-1)). For the same compound, the GI50 in the test on KB (Oral KB (Table 4)) is 1.87 µM; with Si-Ha (Cervix Si-Ha (Table 4)), 1.7 µM; in the test on HOP-62 (Lung HOP-62 (Table 4)), 1.93 µM; in the test with HOP-62 (non small cell lung (HOPO62)) it was 1.93 µM; in the test with GURAV (Oral GURAV (Table 4)), 1.6 µM. Further, the “ΔTm after incubation at 37 °C for 0 h” value in test [1] worked out at 4.3 °C. The “ΔTm after incubation at 37 °C for 18 h” value in test [1] was found to be 4.8 °C.

In the case of `COc1cc2c(cc1OCCCCCCn1c3ccccc3c3ccccc31)N=C[C@@H]1CCCN1C2=O` [Compound 6d, 7-Methoxy-8-[6-(9H-9-carbazoly)hexyloxy]-(11aS)-1,2,3,11a-tetrahydro-5H-pyrrolo[2,1-c][1,4]-benzodiazepin-5-one], the GI50 in the test on Colo-205 (Colon Colo-205 (Table 4)) worked out at 1.62 µM; in the test with Colo-205 (colon (Colo205)) it was 1.62 µM; in the test on A-2780, 1.7 µM; in the test with MCF7 (Breast MCF7 (Table 4)) it was 1.65 µM; in the test with MCF7 (breast (MCF-7)), 1.65 µM; in the test with Zr-75-1 (Breast Zr-75-1 (Table 4)) it was 2.14 µM. Besides, the concentration for 50% growth inhibition (GI50) with KB (Oral KB (Table 4)) was found to be 1.95 µM; in the test with Si-Ha (Cervix Si-Ha (Table 4)), 1.58 µM; in the test with HOP-62 (Lung HOP-62 (Table 4)), 1.58 µM; with HOP-62 (non small cell lung (HOPO62)) it was 1.58 µM; with GURAV (Oral GURAV (Table 4)) it was 1.71 µM.

For the compound `COc1ccc(-c2ccc3c(c2)c2cc(-c4ccc(OC)cc4)ccc2n3CCCOc2cc3c(cc2OC)C(=O)N2CCC[C@H]2C=N3)cc1` [Compound 10d, 7-Methoxy-8-{3-[3,6-di(4-methoxyphenyl)-9H-9-carbazoly]propoxy}-(11aS)-1,2,3,11a-tetrahydro-5H-pyrrolo[2,1-c][1,4]-benzodiazepin-5-one], the 50% growth inhibitory concentration (GI50) in the test on A-549 turned out to be 2.1 µM; in the test on Colo-205 (Colon Colo-205 (Table 4)), 1.7 µM; with Colo-205 (colon (Colo205)), 1.7 µM; in the test on A-2780, 0.15 µM; in the test with MCF7 (Breast MCF7 (Table 4)), 0.13 µM; with MCF7 (breast (MCF-7)) it was 0.13 µM. For the same compound, the GI50 with PC-3 (Prostate PC-3 (Table 4)) was found to be 0.16 µM; in the test with KB (Oral KB (Table 4)), 0.18 µM; in the test on Si-Ha (Cervix Si-Ha (Table 4)), 0.17 µM; in the test with HOP-62 (Lung HOP-62 (Table 4)), 0.11 µM; with HOP-62 (non small cell lung (HOPO62)) it was 0.11 µM.

In the case of `COc1ccc(-c2ccc3c(c2)c2cc(-c4ccc(OC)cc4)ccc2n3CCCCOc2cc3c(cc2OC)C(=O)N2CCC[C@H]2C=N3)cc1` [Compound 10e, 7-Methoxy-8-{4-[3,6-di(4-methoxyphenyl)-9H-9-carbazoly]butoxy}-(11aS)-1,2,3,11a-tetrahydro-5H-pyrrolo[2,1-c][1,4]-benzodiazepin-5-one], the GI50 in the test on Colo-205 (Colon Colo-205 (Table 4)) turned out to be 2.9 µM; in the test with A-2780, 2 µM; in the test with MCF7 (Breast MCF7 (Table 4)), 0.15 µM; in the test on MCF7 (breast (MCF-7)), 0.15 µM; in the test with PC-3 (Prostate PC-3 (Table 4)), 0.16 µM; with PC-3 (prostate (PC-3)) it was 0.16 µM. The GI50 in the test on Si-Ha (Cervix (Si-Ha)) and with Si-Ha (Cervix Si-Ha (Table 4)) was 0.17 µM throughout.

Consider `COc1cc2c(cc1OCCCN1CCN(CCCCn3c4ccccc4c4ccccc43)CC1)N=C[C@@H]1CCCN1C2=O` [Compound 14b, 7-Methoxy-8-(3-{4-[4-(9H-9-carbazoly)butyloxy]piperazino}propyloxy)-(11aS)-1,2,3,11a-tetrahydro-5H-pyrrolo[2,1-c][1,4]benzodiazepin-5-one], for which the GI50 in the test with Colo-205 (Colon Colo-205 (Table 4)) was 0.14 µM; in the test on Colo-205 (colon (Colo205)), 0.14 µM; with A-2780, 0.11 µM; in the test with MCF7 (Breast MCF7 (Table 4)), 0.15 µM; with MCF7 (breast (MCF-7)) it was 0.15 µM; in the test on Zr-75-1 (Breast Zr-75-1 (Table 4)), 0.15 µM. Besides, the concentration for 50% growth inhibition (GI50) is 0.15 µM with Zr-75-1 (breast (Zr-75-1)); 0.14 µM with KB (Oral KB (Table 4)); 0.13 µM with Si-Ha (Cervix Si-Ha (Table 4)); 0.14 µM in the test with HOP-62 (Lung HOP-62 (Table 4)); 0.14 µM in the test on HOP-62 (non small cell lung (HOPO62)); 0.13 µM in the test with GURAV (Oral GURAV (Table 4)). Moreover, in test [1], the “ΔTm after incubation at 37 °C for 0 h” value is 7.8 °C. Moreover, in test [1], the “ΔTm after incubation at 37 °C for 18 h” value was found to be 8.5 °C.

Take `COc1cc2c(cc1OCCCCN1CCN(CCCCn3c4ccccc4c4ccccc43)CC1)N=C[C@@H]1CCCN1C2=O` [Compound 14d, 7-Methoxy-8-(4-{-4-[4-(9H-9-carbazoly)butyloxy]piperazino}butyloxy)-(11aS)-1,2,3,11a-tetrahydro-5H-pyrrolo[2,1-c][1,4]benzodiazepin-5-one]: the GI50 in the test with Colo-205 (Colon Colo-205 (Table 4)) was 0.16 µM; in the test with Colo-205 (colon (Colo205)), 0.16 µM; in the test with A-2780 it was 0.16 µM; with MCF7 (Breast MCF7 (Table 4)), 0.17 µM; in the test on MCF7 (breast (MCF-7)), 0.15 µM; in the test on Zr-75-1 (Breast Zr-75-1 (Table 4)), 0.15 µM. Also, the GI50 in the test with Zr-75-1 (breast (Zr-75-1)) was determined as 0.17 µM; in the test on KB (Oral KB (Table 4)), 0.15 µM; with KB (oral (KB), text b39) it was 0.15 µM; in the test on Si-Ha (Cervix Si-Ha (Table 4)), 0.17 µM; with HOP-62 (Lung HOP-62 (Table 4)), 1.82 µM; in the test with GURAV (Oral GURAV (Table 4)) it was 0.17 µM. In the test on GURAV (oral (GURAV), text b39), this compound registered a 50% growth inhibitory concentration (GI50) of 0.17 µM. Also, in [1], the “ΔTm after incubation at 37 °C for 0 h” value worked out at 7.9 °C. In addition, in test [1], the “ΔTm after incubation at 37 °C for 18 h” value worked out at 8.4 °C.
